{
  "source": "patent US20250367191A1",
  "about": "“TREATMENT OF MITOCHONDRIAL DISEASES WITH A CNS-PENETRANT SGC STIMULATOR ZAGOCIGUAT” (Tisento Therapeutics Inc., priority 2022, published 2025)",
  "key": {"[1]": {"test_system": "participants diagnosed with MELAS", "assay": "MELAS study: fMRI-BOLD during resting state and visual stimulus", "type": "in vivo, human", "description": "Two exploratory functional neuroimaging modalities, arterial spin labeling (ASL) and functional magnetic resonance imaging (fMRI), were used to measure the potential PD effects of Compound I in the brain. While ASL quantifies regional CBF during the resting state, fMRI is a relative measure based on the blood-oxygen-level-dependent (BOLD) effect and was conducted during both a resting state and during a visual stimulus to measure brain activity.\nEach individual MRI scanning session took approximately 45 minutes (maximum of ˜1 hour)."}, "[2]": {"test_system": "healthy elderly subjects", "settings": "cited from earlier work"}, "[3]": {"assay": "Two Phase 1 studies in healthy adults aged 18 to 79: safety, PK, PD", "type": "in vivo, human", "from_the_text": "The 15-mg Compound I QD dose was selected based on safety, tolerability, PK, and PD data from repeated dosing at this level in two Phase 1 studies conducted in healthy adults aged 18 to 79 years. […] Across the Phase 1 studies, no safety concerns were identified. […] No impact on cognitive performance measures was observed."}, "[4]": {"test_system": "mitochondrial disease patient cells", "settings": "cited from earlier work"}, "[5]": {"test_system": "rats", "settings": "cited from earlier work"}, "[6]": {"assay": "Open-label single-arm study in MELAS (NCT04475549): safety and tolerability", "type": "in vivo, human", "settings": "15 mg QD for 29 days, patients with MELAS", "from_the_text": "This study was completed at 5 investigative sites in the United States. 8 participants completed the study. This study was an open-label, single-arm study evaluating the safety, tolerability, PK, and pharmacodynamics (PD) of Compound I when administered for up to 29 days to participants diagnosed with MELAS. Because this was the first study evaluating Compound I in a patient population, the primary objective was safety and tolerability. The overall study duration for participants was a maximum of 75 days, including the screening, treatment and follow up periods (ClinicalTrials.gov identifier NCT04475549).\nThe primary objective of the trial was to evaluate the safety and tolerability of Compound I when administered to a patient population of subjects with MELAS, by measuring AEs, SAEs and TEAEs leading to drug discontinuation.\nCompound I is a CNS-active investigational drug. Although Compound I and other similar drugs in this class have not been associated with an increased risk of suicidal thinking or behavior, it was considered it important to monitor for such ideation or behavior before and during this clinical study. Therefore, participants were appropriately monitored and closely observed for suicidal ideation and behavior or any other unusual change in behavior. […]\nA complete physical examination was to include examination and assessment of the following: general appearance, lymph nodes, nervous system; cardiovascular system; head, eyes, ears, nose, throat and skin; respiratory system, neck, mental status, abdomen/liver/spleen and musculoskeletal system. […] Clinically relevant findings that were present before study drug initiation on Day 1 were recorded as part of the participant's medical history. Beginning after study drug initiation on Day 1, new clinically relevant findings or worsening of an earlier finding were recorded as an AE. Height (cm) was measured only at Screening. Weight (kg) was recorded throughout the study. Body mass index was calculated and recorded at Screening.\nAll BP and pulse measurements were obtained with an automated BP device (left arm was preferred) prior to blood draws (or ≥10 m after a blood draw, if necessary). Supine BP was taken at Screening (only) and recorded as the average of 2 measurements obtained at 2-minute intervals after the participant had rested quietly in a semi-recumbent/supine position for ≥5 minutes. Orthostatic vital signs were taken at all scheduled visits and participant was to rest quietly in a supine/semi-recumbent position for ≥5 minutes before supine BP and pulse measurements were recorded, then assume sitting position for ≥1 minute, and finally assume a standing position for 2 (±1) minutes before standing measurements were recorded. […]"}, "[7]": {"test_system": "rats", "settings": "cited from earlier work", "remark": "listed apart in the source"}, "[8]": {"settings": "two weeks, 15 mg QD, compared with placebo"}, "[9]": {"settings": "healthy elderly, 15 mg QD, after 14 days"}, "[10]": {"settings": "healthy participants, 15 mg QD for up to 15 days"}},
  "data": [
    {"smiles": "Fc1ccccc1Cc1nc(-c2nc(C(F)(F)F)n[nH]2)cn2ccnc12", "note": "[Compound I, zagociguat]", "values": [
      {"measurement": "task-based functional MRI (visual activation, flashing checkerboard)", "setting": "[1]; Day 29 compared to screening and Day 1", "result": "increased activation of voxels in the occipital region"},
      {"measurement": "task-free functional MRI during resting state, connectivity", "setting": "[1]; Day 29 compared to screening and day 1", "result": "enhanced connecitivity"},
      {"measurement": "N200 auditory event-related potential (ERP) latencies", "setting": "[2]; healthy elderly, 15 mg QD", "result": "shortening"},
      {"measurement": "gamma power (EEG)", "setting": "[2]; healthy elderly, 15 mg QD", "result": "trend increases in gamma power"},
      {"measurement": "posterior alpha power (EEG)", "setting": "[2]; healthy elderly, 15 mg QD", "result": "increases in posterior alpha power"},
      {"measurement": "neuroimaging by ASL and fMRI BOLD, MRS measurements, NeuroCart CNS function assessments", "setting": "[2]; healthy elderly", "result": "No changes were observed"},
      {"measurement": "CSF concentration of Alpha 2 macroglobulin (A2M)", "setting": "[2]; [8]", "result": "potentially important reductions"},
      {"measurement": "CSF concentration of complement C3 (C3)", "setting": "[2]; [8]", "result": "potentially important reductions"},
      {"measurement": "PK data, dose dependence", "setting": "[3]; Phase 1 studies", "result": "linear and dose-dependent"},
      {"measurement": "PK data, effect of food", "setting": "[3]; Phase 1 studies", "result": "not impacted by food"},
      {"measurement": "cognitive performance measures", "setting": "[3]; [9]", "result": "No impact"},
      {"measurement": "neurophysiological parameters by EEG", "setting": "[3]; [9]", "result": "modest impacts"},
      {"measurement": "SAEs", "setting": "[3]; [10]", "result": "no SAEs reported"},
      {"measurement": "discontinuations due to AEs", "setting": "[3]; [10]", "result": "no discontinuations due to AEs"},
      {"measurement": "severity of AEs", "setting": "[3]; [10]", "result": "mild or moderate"},
      {"measurement": "abundance of available adenosine triphosphate (ATP)", "setting": "[4]; mitochondrial disease patient cells", "result": "increasing the abundance of available adenosine triphosphate (ATP)"},
      {"measurement": "expression levels of DDAH2", "setting": "[4]; patient cells", "result": "increased expression levels"},
      {"measurement": "expression levels of TFAM", "setting": "[4]; patient cells", "result": "increased expression levels"},
      {"measurement": "brain metabolite NAA+NAAG deficits", "setting": "[5]; chronic dosing", "result": "reversed"},
      {"measurement": "dendritic spine density", "setting": "[5]; chronic dosing", "result": "improved dendritic spine density"},
      {"measurement": "hippocampal long term potentiation (LTP)", "setting": "[5]; chronic dosing", "result": "restored"},
      {"measurement": "behavioral task performance", "setting": "[5]; pharmacologically impaired rats", "result": "improved behavioral task performance"},
      {"measurement": "neurotrophic factors pCREB and BDNF", "setting": "[5]; rat, in vivo", "result": "increased neurotrophic factors"},
      {"measurement": "SAEs", "setting": "[6]", "result": "no SAEs observed"},
      {"measurement": "adverse events leading to treatment discontinuation", "setting": "[6]", "result": "no adverse events leading to treatment discontinuation"},
      {"measurement": "safety signals on clinical labs, vital signs, ECGs, or suicidal rating scale", "setting": "[6]", "result": "No safety signals"},
      {"measurement": "tolerability", "setting": "[6]", "result": "well tolerated"},
      {"measurement": "gamma power in combination with donepezil", "setting": "[7]; 10 mg/kg orally + 1 mg/kg donepezil, 1-2 hours post-dose", "result": "further increased"},
      {"measurement": "qEEG gamma oscillations / gamma power compared to vehicle dosing", "setting": "[7]; oral suspension", "result": "increasing gamma oscillations"},
      {"measurement": "gamma power", "setting": "[7]; orally at 10 mg/kg", "result": "increased gamma power"}
    ]}
  ]
}
